The results in this text go back to patent publication US9546194B2, “Aminosteroids for the treatment of a PTP1B associated disease” (Ohr Pharmaceutical Inc., priority 2012, dated 2017).

Assay [1] concerns the target T1, full length tyrosine phosphatase PTP1B (Homo sapiens, UniProt P18031).
T1 construct: purchased
T1 sequence (P18031 1-435): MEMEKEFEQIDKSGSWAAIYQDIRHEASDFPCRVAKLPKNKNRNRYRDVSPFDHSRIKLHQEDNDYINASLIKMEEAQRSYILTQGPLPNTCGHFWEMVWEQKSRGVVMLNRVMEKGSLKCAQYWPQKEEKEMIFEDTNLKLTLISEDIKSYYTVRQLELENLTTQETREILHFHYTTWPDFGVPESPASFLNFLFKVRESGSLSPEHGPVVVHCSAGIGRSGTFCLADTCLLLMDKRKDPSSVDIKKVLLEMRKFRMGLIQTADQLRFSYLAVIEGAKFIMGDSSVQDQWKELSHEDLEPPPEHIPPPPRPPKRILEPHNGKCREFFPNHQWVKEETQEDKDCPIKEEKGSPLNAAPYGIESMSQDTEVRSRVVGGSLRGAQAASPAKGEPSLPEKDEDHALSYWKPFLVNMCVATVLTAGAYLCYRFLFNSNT
In words: Inhibition of PTP1B (pNPP hydrolysis, absorbance at 405 nm). To be noted: 5 μM aminosteroid analogue; pNPP substrate; read-out: PTP1B % Inhib. at (5 μM). The format is biochemical. As to the method:
(§1) The aminosteroid analogues were tested for inhibition against the commercially available full length tyrosine phosphatase PTP1B. The ability of each analogue to inhibit the activity of PTP1B was measured in the presence of 5 μM of the aminosteroid analogue. The assay uses para-nitro-phenyl phosphate (pNPP), a non-specific substrate to assess phosphatase activity. Phosphatase activity was based on the ability of PTP1B to catalyze the hydrolysis of pNPP to p-nitrophenol (pNP).

In another assay the target is T2, full length TCPTP (Homo sapiens, UniProt P17706).
T2 construct: except full length TCPTP was used as the enzyme
T2 sequence (P17706 1-415): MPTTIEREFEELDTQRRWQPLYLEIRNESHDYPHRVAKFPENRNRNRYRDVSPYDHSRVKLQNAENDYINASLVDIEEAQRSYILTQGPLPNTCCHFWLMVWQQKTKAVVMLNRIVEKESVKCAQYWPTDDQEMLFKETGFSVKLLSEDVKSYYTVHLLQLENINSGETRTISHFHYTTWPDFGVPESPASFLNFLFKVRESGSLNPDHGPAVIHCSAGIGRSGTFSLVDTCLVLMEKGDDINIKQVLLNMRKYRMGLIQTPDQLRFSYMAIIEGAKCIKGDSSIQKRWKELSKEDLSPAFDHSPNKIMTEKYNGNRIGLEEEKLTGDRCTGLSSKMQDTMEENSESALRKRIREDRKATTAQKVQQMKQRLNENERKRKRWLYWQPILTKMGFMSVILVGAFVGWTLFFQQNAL
In words: Inhibition of TCPTP (pNPP hydrolysis, same manner as PTP1B assay). It counts as biochemical. The note with it: 200 μM inhibitor; pNPP substrate; read-out: TCPTP % Inhib. at (200 μM). As to the method: as §1
The aminosteroid analogues were also tested for their ability to inhibit the tyrosine phosphatase TCPTP as an indication of their potential toxicity by the inhibition of the immune response. The TCPTP inhibition assay was done in the same manner as the PTP1B assay except full length TCPTP was used as the enzyme and the inhibitor was at a concentration of 200 μM. The results of the TCPTP inhibition assays are shown in Table 1, column 4 and show three compounds that inhibit TCPTP less than 50% even at a […] greater concentration.

In assay [2] the test system is ob/ob (Lep^ob) mouse. Nature of the assay: Oral glucose tolerance test (OGTT) in ob/ob mouse. The format is in vivo. The note with it: ob/ob mice; for change in vivo: Mus musculus, 336 h, 5 or 10 mg/kg ip every 3 days, 4 doses, OGTT study day 14, 1.5 g/kg oral glucose, 0-120 min, read-out: AbAUC % Change From Saline; for reduction in AbAUC compared to saline control (significance): OGTT study day 14, p<0.05. As to the method:
(§2) To determine in vivo efficacy of the aminosteroid analogues an ob/ob (Lep^ob) mouse model was used. Ob/ob mice are extensively used for screening of antidiabetic and/or anti-obesity agents. Ob/ob mice were treated with either saline or 5 or 10 mg/kg aminosteroid analogue every 3 days for a total of 4 doses via ip injection. Body weight, glucose tolerance and fasting blood glucose levels were measured for each group during the study. Each group had at least an N of 4 animals. All reagents and lab animals are commercially available.
On study day 14, an oral glucose tolerance test (OGTT) was performed to assess glucose tolerance. At time 0, an oral glucose challenge (1.5 g/kg) was administered by oral gavage. At time points 0, 15, 30, 60, 90, and 120 min post glucose load, 25 μl of whole blood was withdrawn from the tail vein of the animal and the glucose level was measured using a glucose analyzer. The glucose concentration vs time was plotted and the above baseline area under the curve (AbAUC) of the glucose excursion time curve was determined using trapezoidal rule analyses.

For assay [3], the system named is ob/ob (Lep^ob) mouse. In words: Fasting blood glucose (FBG) in ob/ob mouse. To be noted: ob/ob mice; 5 or 10 mg/kg ip every 3 days, 4 doses; study day 14 after overnight fast. The format is in vivo. As to the method:
as §2
On study day 13, all animal groups were fasted overnight. On study day 14, 25 μL of whole blood was collected and analyzed for the glucose level (mg/dL) using a glucose analyzer.

Assay [4] can be described thus: Body weight change in ob/ob mouse. The format is in vivo. The note with it: ob/ob mice; 5 or 10 mg/kg ip every 3 days, 4 doses; % change in body weight vs study day 0, up to 30 days. As to the method:
as §2
Starting at study day 0, body weight measurements were taken every day for each group for up to 30 days. Percent change in body weight was calculated as the fractional response of body weight on study day X over the original body weight on study day 0.

Structures are written as SMILES.

For `COC(=O)CC[C@@H](C)[C@H]1CCC2C3C(CC[C@@]21C)[C@@]1(C)CC[C@H](NCCCCNCc2cccnc2)C[C@@H]1C[C@H]3O` (stereo partly shown) [MSI-2511], the inhibition at 5 µM in assay [1] amounted to 93%. In addition, the inhibition at 200 µM on full length TCPTP came out at 0%. Moreover, in the assay with ob/ob (Lep^ob) mouse [2], the change in vivo is -34.6% and the “reduction in AbAUC compared to saline control (significance)” value (from here on “reduction in AbAUC … (significance)”) is reported as “significant reduction”. The “FBG % Change From Saline” value in the assay on ob/ob (Lep^ob) mouse [3] worked out at 5.1%. The “% BW Nader” value in assay [4] is −0.9%.

As to `COC(=O)CC[C@@H](C)[C@H]1CCC2C3CC[C@@H]4C[C@H](NCc5ccccn5)CC[C@]4(C)C3C[C@H](O)[C@@]21C` (stereo partly shown) [MSI-2512], the inhibition at 5 µM in assay [1] came out at 90%. Moreover, the inhibition at 200 µM at full length TCPTP was -2%. The change in vivo in the assay on ob/ob (Lep^ob) mouse [2] was -5.8%. The “FBG % Change From Saline” value in the assay with ob/ob (Lep^ob) mouse [3] came out at 45.8%. In addition, in assay [4], the “% BW Nader” value was found to be 0.4%.

In the case of `COC(=O)CC[C@@H](C)[C@H]1CCC2C3C[C@@H](O)[C@H]4C[C@H](NCCNC(C)C)CC[C@]4(C)C3CC[C@@]21C` (stereo partly shown) [MSI-2514], the inhibition at 5 µM in assay [1] was determined as 96%. For the same compound, the inhibition at 200 µM on full length TCPTP is 30%. Also, the change in vivo with ob/ob (Lep^ob) mouse [2] was -11.6%. Further, in the assay on ob/ob (Lep^ob) mouse [3], the “FBG % Change From Saline” value turned out to be 9.2%. The “% BW Nader” value in assay [4] was −1.5%.

Regarding `COC(=O)CC[C@@H](C)[C@H]1CCC2C3C(CC[C@@]21C)[C@@]1(C)CC[C@H](NCCNC(C)C)C[C@H]1C[C@H]3O` (stereo partly shown) [MSI-2520], the inhibition at 5 µM in assay [1] stood at 103%. In addition, at full length TCPTP, the inhibition at 200 µM is 19%. Besides, in the assay with ob/ob (Lep^ob) mouse [2], the change in vivo is -30.1% and the “reduction in AbAUC … (significance)” value is “significant reduction”. In the assay with ob/ob (Lep^ob) mouse [3], the “FBG % Change From Saline” value was found to be 34.7%. In assay [4], the “% BW Nader” value came to 0.5%.

Turning to `COC(=O)CC[C@@H](C)[C@H]1CCC2C3C(CC[C@@]21C)[C@@]1(C)CCC(NCCNC(C)C)C[C@@H]1C[C@H]3NS(C)(=O)=O` (stereo partly shown) [MSI-2527], in assay [1], the inhibition at 5 µM was 102%. In addition, the inhibition at 200 µM on full length TCPTP turned out to be 15%. Moreover, in the assay on ob/ob (Lep^ob) mouse [2], the change in vivo is -33% and the “reduction in AbAUC … (significance)” value is reported as “significant reduction”. Further, the “FBG % Change From Saline” value with ob/ob (Lep^ob) mouse [3] is 32.2%. In addition, the “% BW Nader” value in assay [4] turned out to be 0.0%.

For `COC(=O)CC[C@@H](C)[C@H]1CCC2C3C(CC[C@@]21C)[C@@]1(C)CC[C@H](NCCNC(C)C)C[C@@H]1C[C@H]3NC(C)=O` (stereo partly shown) [MSI-2532], the inhibition at 5 µM in assay [1] stood at 53%. The inhibition at 200 µM on full length TCPTP was 4%. Besides, in the assay with ob/ob (Lep^ob) mouse [2], the change in vivo is -56.6% and the “reduction in AbAUC … (significance)” value is listed as “significant reduction”. In addition, the “FBG % Change From Saline” value with ob/ob (Lep^ob) mouse [3] is on record as −0.7%. Also, in assay [4], the “% BW Nader” value is recorded as −0.8%.
